# Reference: patent US20130101624A1, “LINEAR IGE PEPTIDE EPITOPES OF HAZELNUT ALLERGEN COR A 1 AND CELERY ANTIGEN API 1” (CHARITE UNIVERSITATSMEDIZIN BERLIN, priority 2010, published 2013)
# Experiments:
# [1] = system: human IgE antibodies (sera of celery allergic patients and healthy subjects); assay: Human IgE antibody binding to Api g 1.0101 derived 12-meric peptides arrayed on cellulose membrane (SPOT pepscan), probed with sera; settings: for number of celery allergic patients whose sera IgE antibodies bind the sequence: of 21 celery allergic patients; for IgE binding in sera of healthy controls: sera of 17 healthy subjects; for IgE binding in sera of healthy controls / share of celery allergic individuals whose serum IgE responded to the peptide / recognition by sera of celery allergic patients: diluted 1:5; for share of celery allergic individuals whose serum IgE responded to the peptide / recognition by sera of celery allergic patients: sera of 21 celery allergic patients; for share of celery allergic individuals whose serum IgE responded to the peptide: spot positive if SInorm above membrane cut off
# From the text: (§1) Subsequently, these sequences were synthesized as peptide arrays on cellulose membranes according to SPOT technology. A highly specific secondary anti-human IgE antibody with minimum cross-reactivity towards cellulose membrane-bound peptides was employed.
# (§2) Synthetic arrays were probed with sera randomly chosen from a well described cohort of subjects, including 21 patients with a defined allergic reaction to celery, 13 patients with a defined allergic reaction to hazelnut and 17 healthy individuals. Captured human IgE antibodies were detected by a HRP-labeled secondary antibody and binding was visualized by chemiluminescence.
# The optimal conditions for screening the sera of 21 celery allergic patients and 17 healthy controls were as follows: (i) replica of a 12-meric pepscan with a shift of three amino acids covering the Api g 1.0101 sequence (or cor a 1 sequence, respectively) synthesized on high-loaded N-CAPE membranes (640 nmol/cm2-760 nmol/cm2); (ii) prior to treatment with sera, membranes were blocked with the Sigma-Genosys blocking buffer for 2 h at room temperature; (iii) arrays were probed for 16 h at 4° C. with diluted sera (1:5) for IgE antibody binding; (iv) the captured human IgE antibodies were detected with the HRP-labeled anti-human IgE antibody (A 9667, Sigma-Aldrich) and visualized by chemiluminescence; (v) spot signal intensities were measured on a Lumilmager and processed with the LumiAnalyst software. To check the reproducibility of our screening procedure, three different peptide arrays were incubated and evaluated for each person (allergic and healthy).
# Sera binding patterns could be reproduced in repeated incubation experiments. Although inter-membrane absolute spot signal intensities differed, the relative differences between spot signal intensities were nearly the same. This enabled comparison of spot signal intensities from different membranes by applying an additional normalization procedure. We defined an IgE antibody binding spot as positive if its normalized signal intensity (SInorm) was higher than the calculated cut off value of the appropriate membrane.
# Peptide array synthesis: Overlapping peptide sequences (7-, 12- and 24-mer) with a shift of three amino acids) of Api g 1.0101 or cor a 1 were prepared by a MultiPep SPOT-robot (INTAVIS Bioanalytical Instruments AG, Köln, Germany). Array design was performed with the aid of the in-house software LISA 1.83. Amino acids were used as Fmoc-protected Opfp-esters with the following side protection groups: tert-butyl ester (OtBu) for E and D, tert-butyl ether (tBu) for S, T and Y, tert-butoxycarbonyl (Boc) for K and W, triphenylmethyl (Trt) for C, N, Q and H and 2,2,4,6,7-pentamethyldihydrobenzofuran-5-sulfonyl (Pbf) for R. For standard SPOT-synthesis, double couplings of 0.3 M solutions of amino acids in 1-methyl-2-pyrollidone (NMP; Fluka, Steinheim, Germany) were applied. After the final Fmoc-deprotection step and washing procedure, cleavage of the side chain protecting groups was performed according to our standard two-step deprotection protocol.
# Human IgE antibody binding studies: The spotted peptide arrays were prewashed with ethanol (1×10 min), washed with Tris-buffered saline (TBS), pH 8.0 (3×10 min), and blocked for 2 h at room temperature with blocking buffer. The membranes were incubated with the patients' sera (dilution 1:5) in blocking buffer overnight at 4° C., washed with TBS, followed by a second incubation with anti-human IgE antibody (ε-chain specific) conjugated with horse radish peroxidase (HRP) (A 9667, Sigma-Aldrich, St. Louis, USA) in blocking buffer for 2 h at room temperature. To remove excess antibody the membrane was washed with TBS (3×10 min). Detection was performed with Uptilight HRP blot chemiluminescent substrate (Uptima, Interchim, Montiugon Cedex, France) with an exposure time of 2 min. […]
# [2] = system: human IgE antibodies (sera of hazelnut allergic patients); assay: Human IgE antibody binding to Cor a 1.0301 derived 12-meric peptide array (SPOT pepscan), probed with sera; settings: sera of 13 hazelnut allergic patients
# From the text: An array of overlapping peptides representing the entire sequence of major hazelnut allergen Cor a 1.0301 was synthesized and probed with the participants' sera. Sera of hazelnut allergic patients show binding to different distinct regions of Cor a 1. In particular, the region of dodecapeptides 17 to 22 is the most important region for IgE-binding.
# as §1
# as §2, with “chemiluminescence. […]” for “chemiluminescence.”
# Human IgE antibody binding studies: The spotted peptide arrays were prewashed with ethanol (1×10 min), washed with Tris-buffered saline (TBS), pH 8.0 (3×10 min), and blocked for 2 h at room temperature with blocking buffer. […] The signal intensities were recorded as Biomedical Light Units (BLU) by a Lumilmager™ (Boehringer Mannheim GmbH, Mannheim, Germany) using the LumiAnalyst software. […]
Sequence,number of celery allergic patients whose sera IgE antibodies bind the sequence [1],IgE binding in sera of healthy controls [1],share of celery allergic individuals whose serum IgE responded to the peptide [1],also measured
IFQGFVIDVDTV (listed as Apium graveolens) [peptide 7],at least six,not reacting with any sera IgE antibody from healthy subjects,38%,
VLVPTADGGSIC (listed as Apium graveolens) [peptide 35],at least six,not reacting with any sera IgE antibody from healthy subjects,100%,"spot signal intensity (BLU), ranking ([1]; average spot signal intensity, chemiluminescence, FIG. 3): highest measured spot signal intensity; IgE binding in sera of healthy controls ([1]; listed as VLVPTADGGSIC): no binding; recognition by sera of celery allergic patients [1]: recognized by the sera from all the celery allergic patients; recognition by sera of celery allergic patients ([1]; listed as VLVPTADGGSIC): recognized by all sera of celery allergic patients"
AGKEKASGLFKA (listed as Corylus avellana) [COR A 1. PEP47],,,,recognition by sera of hazelnut allergic patients [2]: recognized by all sera of hazelnut allergic patients
IITLPDGGPITT (listed as Apium graveolens) [compound 19],,,29%,
GDGGPGTLKIIT (listed as Apium graveolens) [compound 16],,,38%,
PTADGGSICKTT (listed as Apium graveolens) [compound 36],,,43%,
GGPITTMTLRID (listed as Apium graveolens) [compound 21],,,29%,
NHVVLVPTADGG [peptide 34],at least six,not reacting with any sera IgE antibody from healthy subjects,29%,
PHGGSILKSISK (listed as Corylus avellana) [COR A 1. PEP37],,,,recognition by sera of hazelnut allergic patients [2]: recognized by all sera of hazelnut allergic patients
